Experimental data from patent US20110294766A1, “16 Alpha, 17 Alpha-Acetal Glucocorticosteroidal Derivatives and their Use” (AstraZeneca AB, priority 2008, published 2011).

Target: T1, recombinant human GR (Homo sapiens, UniProt P04150)
T1 construct: purchased Panvera/Invitrogen P2812 (kit P2893)
T1 sequence (P04150 1-777): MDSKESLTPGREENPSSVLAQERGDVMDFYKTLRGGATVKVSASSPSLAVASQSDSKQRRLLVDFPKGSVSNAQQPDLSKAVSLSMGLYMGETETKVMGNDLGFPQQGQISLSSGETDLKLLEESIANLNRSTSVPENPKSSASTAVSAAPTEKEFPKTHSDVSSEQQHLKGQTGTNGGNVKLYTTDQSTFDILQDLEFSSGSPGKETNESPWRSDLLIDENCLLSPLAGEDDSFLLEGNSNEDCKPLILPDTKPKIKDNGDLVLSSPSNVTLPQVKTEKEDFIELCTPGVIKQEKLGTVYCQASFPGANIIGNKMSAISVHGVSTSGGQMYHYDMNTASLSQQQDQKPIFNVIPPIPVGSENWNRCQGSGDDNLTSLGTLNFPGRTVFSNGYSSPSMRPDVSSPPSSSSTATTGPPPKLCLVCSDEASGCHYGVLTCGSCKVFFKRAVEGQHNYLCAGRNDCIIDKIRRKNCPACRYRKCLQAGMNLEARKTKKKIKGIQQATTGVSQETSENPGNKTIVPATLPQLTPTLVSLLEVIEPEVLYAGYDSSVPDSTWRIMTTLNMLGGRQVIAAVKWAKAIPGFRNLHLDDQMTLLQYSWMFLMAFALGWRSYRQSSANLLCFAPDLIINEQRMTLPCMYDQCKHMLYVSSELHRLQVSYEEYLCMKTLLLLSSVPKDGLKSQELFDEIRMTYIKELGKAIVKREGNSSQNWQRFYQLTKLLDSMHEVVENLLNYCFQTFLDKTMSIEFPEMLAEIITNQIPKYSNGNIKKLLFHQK
Assay: Human Glucocorticoid Receptor (GR) Assay (fluorescence polarization, Panvera/Invitrogen kit)
Settings: GS Red tracer, 2 hours at room temperature, 100% control 10 μM Dexamethasone, read-out: Inhibition of GR binding, IC50
Protocol: Human Glucocorticoid Receptor (GR) Assay The assay is based on a commercial kit from Panvera/Invitrogen (Part number P2893). The assay technology is fluorescence polarization. The kit utilises recombinant human GR (Panvera, Part number P2812), a Fluoromone™ labelled tracer (GS Red, Panvera, Part number P2894) and a Stabilizing Peptide 10× (Panvera, Part number P2815). The GR and Stabilizing Peptide reagents are stored at −70° C. while the GS Red is stored at −20° C. Also included in the kit are 1M DTT (Panvera, Part number P2325, stored at −20° C.) and GR Screening buffer 10× (Panvera, Part number P2814, stored at −70° C. initially but once thawed stored at room temperature). Avoid repeated freeze/thaws for all reagents. The GR Screening buffer 10× comprises 100 mM potassium phosphate, 200 mM sodium molybdate, 1 mM EDTA and 20% DMSO. Test compounds (1 μL) and controls (1 μL) in 100% DMSO were added to black polystyrene 384-well plates (Greiner low volume black flat-bottom, part number 784076). 0% control was 100% DMSO and 100% control was 10 μM Dexamethasone. Background solution (8 μL; assay buffer 10×, Stabilizing Peptide, DTT and ice cold MQ water) was added to the background wells. GS Red solution (7 μL; assay buffer 10×, Stabilizing Peptide, DTT, GS Red and ice cold water) was added to all wells except background wells. GR solution (7 μL; assay buffer 10×, Stabilizing Peptide, DTT, GR and ice cold water) was added to all wells. The plate was sealed and incubated in a dark at room temperature for 2 hours. The plate was read in an Analyst plate reader (LJL Biosystems/Molecular Devices Corporation) or other similar plate reader capable of recording fluorescence polarization (excitation wavelength 530 nm, emission wavelength 590 nm and a dichroic mirror at 561 nm).

| Compound | IC50 [nM] |
| --- | --- |
| C[C@]12C=CC(=O)C=C1CC[C@@H]1[C@@H]2[C@@H](O)C[C@@]2(C)[C@H]1C[C@H]1OC(c3ccc(C(F)(F)F)cc3)O[C@]12C(=O)SCC#N (stereo partly drawn) [Example 39, S-(Cyanomethyl)(4aR,4bS,5S,6aS,6bS,9aR,10aS,10bS)-5-hydroxy-4a,6a-dimethyl-2-oxo-8-[4-(trifluoromethyl)phenyl]-2,4a,4b,5,6,6a,9a,10,10a,10,11,12-dodecahydro-6bH-naphtho[2′,1′:4,5]indeno[1,2-d][1,3]dioxole-6b-carbothioate] | 2.8 |
| C[C@]12C=CC(=O)C=C1[C@@H](F)C[C@H]1[C@@H]3C[C@H]4OC(c5ccc6ncccc6c5)O[C@@]4(C(=O)SCC#N)[C@@]3(C)C[C@H](O)[C@@]12F (stereo partly drawn) [Example 16, S-(Cyanomethyl)(4aS,4bR,5S,6aS,6bS,9aR,10aS,10bS,12S)-4b,12-difluoro-5-hydroxy-4a,6a-dimethyl-2-oxo-8-quinolin-6-yl-2,4a,4b,5,6,6a,9a,10,10a,10b,11,12-dodecahydro-6bH-naphtho[2′,1′:4,5]indeno[1,2-d][1,3]dioxole-6b-carbothioate] | 1.5 |
| C[C@]12C=CC(=O)C=C1[C@@H](F)C[C@H]1[C@@H]3C[C@H]4OC(c5ccc(C(F)(F)F)cc5)O[C@@]4(C(=O)SCC#N)[C@@]3(C)C[C@H](O)[C@@]12F (stereo partly drawn) [Example 20, S-(Cyanomethyl)(4aS,4bR,5S,6aS,6bS,9aR,10aS,10bS,12S)-4b,12-difluoro-5-hydroxy-4a,6a-dimethyl-2-oxo-8-[4-(trifluoromethyl)phenyl]-2,4a,4b,5,6,6a,9a,10,10a,10b,11,12-dodecahydro-6bH-naphtho[2′,1′:4,5]indeno[1,2-d][1,3]dioxole-6b-carbothioate] | 2.4 |
| CSC(=O)[C@@]12OC(c3ccc(C)o3)O[C@@H]1C[C@H]1[C@@H]3C[C@H](F)C4=CC(=O)C=C[C@]4(C)[C@@]3(F)[C@@H](O)C[C@@]12C (stereo partly drawn) [Example 8, S-Methyl (4aS,4bR,5S,6aS,6bS,9aR,10aS,10bS,12S)-4b,12-difluoro-5-hydroxy-4a,6a-dimethyl-8-(5-methyl-2-furyl)-2-oxo-2,4a,4b,5,6,6a,9a,10,10a,10b,11,12-dodecahydro-6bH-naphtho[2′,1′:4,5]indeno[1,2-d][1,3]dioxole-6b-carbothioate] | 1.9 |
| C[C@]12C=CC(=O)C=C1CC[C@@H]1[C@@H]2[C@@H](O)C[C@@]2(C)[C@H]1C[C@H]1O[C@@H](c3cccs3)O[C@]12C(=O)SCF [Example 35, S-(Fluoromethyl)(4aR,4bS,5S,6aS,6bS,8R,9aR,10aS,10bS)-5-hydroxy-4a,6a-dimethyl-2-oxo-8-thiophen-2-yl-2,4a,4b,5,6,6a,9a,10,10a,10,11,12-dodecahydro-6bH-naphtho[2′,1′:4,5]indeno[1,2-d][1,3]dioxole-6b-carbothioate] | 1.1 |
| C[C@]12C=CC(=O)C=C1[C@@H](F)C[C@H]1[C@@H]3C[C@H]4OC(c5ccc(Cl)cc5)O[C@@]4(C(=O)SCF)[C@@]3(C)C[C@H](O)[C@@]12F (stereo partly drawn) [Example 29, S-(Fluoromethyl)(4aS,4bR,5S,6aS,6bS,9aR,10aS,10bS,12S)-8-(4-chlorophenyl)-4b,12-difluoro-5-hydroxy-4a,6a-dimethyl-2-oxo-2,4a,4b,5,6,6a,9a,10,10a,10b,11,12-dodecahydro-6bH-naphtho[2′,1′:4,5]indeno[1,2-d][1,3]dioxole-6b-carbothioate] | 1.3 |
| Cc1ccc(C2O[C@@H]3C[C@H]4[C@@H]5C[C@H](F)C6=CC(=O)C=C[C@]6(C)[C@@]5(F)[C@@H](O)C[C@]4(C)[C@]3(C(=O)SCC#N)O2)o1 (stereo partly drawn) [Example 10, S-(Cyanomethyl)(4aS,4bR,5S,6aS,6bS,9aR,10aS,10bS,12S)-4b,12-difluoro-5-hydroxy-4a,6a-dimethyl-8-(5-methyl-2-furyl)-2-oxo-2,4a,4b,5,6,6a,9a,10,10a,10b,11,12-dodecahydro-6bH-naphtho[2′,1′:4,5]indeno[1,2-d][1,3]dioxole-6b-carbothioate] | 1.1 |
| C[C@]12C=CC(=O)C=C1[C@@H](F)C[C@H]1[C@@H]3C[C@H]4OC(c5cccc6c5OCC6)O[C@@]4(C(=O)SCF)[C@@]3(C)C[C@H](O)[C@@]12F (stereo partly drawn) [Example 32, S-(Fluoromethyl)(4aS,4bR,5S,6aS,6bS,9aR,10aS,10bS,12S)-8-(2,3-dihydro-1-benzofuran-7-yl)-4b,12-difluoro-5-hydroxy-4a,6a-dimethyl-2-oxo-2,4a,4b,5,6,6a,9a,10,10a,10b,11,12-dodecahydro-6bH-naphtho[2′,1′:4,5]indeno[1,2-d][1,3]dioxole-6b-carbothioate] | 1 |
| COc1ccc([C@@H]2O[C@@H]3C[C@H]4[C@@H]5CCC6=CC(=O)C=C[C@]6(C)[C@H]5[C@@H](O)C[C@]4(C)[C@]3(C(=O)SC)O2)c(F)c1 [Example 38 (8R), S-Methyl (4aR,4bS,5S,6aS,6bS,8R,9aR,10aS,10bS)-8-(2-fluoro-4-methoxyphenyl)-5-hydroxy-4a,6a-dimethyl-2-oxo-2,4a,4b,5,6,6a,9a,10,10a,10b,11,12-dodecahydro-6bH-naphtho[2′,1′:4,5]indeno[1,2-d][1,3]dioxole-6b-carbothioate] | 2.2 |

Second part, the compound after the results:

| IC50 [nM] | Compound |
| --- | --- |
| 0.81 | C[C@]12C=CC(=O)C=C1CC[C@@H]1[C@@H]2[C@@H](O)C[C@@]2(C)[C@H]1C[C@H]1OC(c3ccccc3F)O[C@]12C(=O)SCF (stereo partly drawn) [Example 43, S-(Fluoromethyl)(4aR,4bS,5S,6aS,6bS,9aR,10aS,10bS)-8-(2-fluorophenyl)-5-hydroxy-4a,6a-dimethyl-2-oxo-2,4a,4b,5,6,6a,9a,10,10a,10,11,12-dodecahydro-6bH-naphtho[2′,1′:4,5]indeno[1,2-d][1,3]dioxole-6b-carbothioate] |
| 0.85 | Cc1ccccc1C1O[C@@H]2C[C@H]3[C@@H]4C[C@H](F)C5=CC(=O)C=C[C@]5(C)[C@@]4(F)[C@@H](O)C[C@]3(C)[C@]2(C(=O)SCF)O1 (stereo partly drawn) [Example 22, S-(Fluoromethyl)(4aS,4bR,5S,6aS,6bS,9aR,10aS,10bS,12S)-4b,12-difluoro-5-hydroxy-4a,6a-dimethyl-8-(2-methylphenyl)-2-oxo-2,4a,4b,5,6,6a,9a,10,10a,10b,11,12-dodecahydro-6bH-naphtho[2′,1′:4,5]indeno[1,2-d][1,3]dioxole-6b-carbothioate] |
| 0.55 | Cc1ccsc1C1O[C@@H]2C[C@H]3[C@@H]4C[C@H](F)C5=CC(=O)C=C[C@]5(C)[C@@]4(F)[C@@H](O)C[C@]3(C)[C@]2(C(=O)SCF)O1 (stereo partly drawn) [Example 13, S-(Fluoromethyl)(4aS,4bR,5S,6aS,6bS,9aR,10aS,10bS,12S)-4b,12-difluoro-5-hydroxy-4a,6a-dimethyl-8-(3-methyl-2-thienyl)-2-oxo-2,4a,4b,5,6,6a,9a,10,10a,10b,11,12-dodecahydro-6bH-naphtho[2′,1′:4,5]indeno[1,2-d][1,3]dioxole-6b-carbothioate] |
| 1 | Cc1ccc([C@H]2O[C@@H]3C[C@H]4[C@@H]5C[C@H](F)C6=CC(=O)C=C[C@]6(C)[C@@]5(F)[C@@H](O)C[C@]4(C)[C@]3(C(=O)SCF)O2)o1 [Example 7, S-(Fluoromethyl)(4aS,4bR,5S,6aS,6bS,8S,9aR,10aS,10bS,12S)-4b,12-difluoro-5-hydroxy-4a,6a-dimethyl-8-(5-methyl-2-furyl)-2-oxo-2,4a,4b,5,6,6a,9a,10,10a,10b,11,12-dodecahydro-6bH-naphtho[2′,1′:4,5]indeno[1,2-d][1,3]dioxole-6b-carbothioate] |
| 1 | Cc1noc(C)c1C1O[C@@H]2C[C@H]3[C@@H]4C[C@H](F)C5=CC(=O)C=C[C@]5(C)[C@@]4(F)[C@@H](O)C[C@]3(C)[C@]2(C(=O)SCF)O1 (stereo partly drawn) [Example 33, S-(Fluoromethyl)(4aS,4bR,5S,6aS,6bS,9aR,10aS,10bS,12S)-8-(3,5-dimethylisoxazol-4-yl)-4b,12-difluoro-5-hydroxy-4a,6a-dimethyl-2-oxo-2,4a,4b,5,6,6a,9a,10,10a,10b,11,12-dodecahydro-6bH-naphtho[2′,1′:4,5]indeno[1,2-d][1,3]dioxole-6b-carbothioate] |
